The values below come from patent US10478426B2, “Enhancer of Zeste Homolog 2 inhibitors” (GlaxoSmithKline LLC, priority 2012, dated 2019).

Sequence of EZH2 within the PRC2 complex (Q15910 whole entry): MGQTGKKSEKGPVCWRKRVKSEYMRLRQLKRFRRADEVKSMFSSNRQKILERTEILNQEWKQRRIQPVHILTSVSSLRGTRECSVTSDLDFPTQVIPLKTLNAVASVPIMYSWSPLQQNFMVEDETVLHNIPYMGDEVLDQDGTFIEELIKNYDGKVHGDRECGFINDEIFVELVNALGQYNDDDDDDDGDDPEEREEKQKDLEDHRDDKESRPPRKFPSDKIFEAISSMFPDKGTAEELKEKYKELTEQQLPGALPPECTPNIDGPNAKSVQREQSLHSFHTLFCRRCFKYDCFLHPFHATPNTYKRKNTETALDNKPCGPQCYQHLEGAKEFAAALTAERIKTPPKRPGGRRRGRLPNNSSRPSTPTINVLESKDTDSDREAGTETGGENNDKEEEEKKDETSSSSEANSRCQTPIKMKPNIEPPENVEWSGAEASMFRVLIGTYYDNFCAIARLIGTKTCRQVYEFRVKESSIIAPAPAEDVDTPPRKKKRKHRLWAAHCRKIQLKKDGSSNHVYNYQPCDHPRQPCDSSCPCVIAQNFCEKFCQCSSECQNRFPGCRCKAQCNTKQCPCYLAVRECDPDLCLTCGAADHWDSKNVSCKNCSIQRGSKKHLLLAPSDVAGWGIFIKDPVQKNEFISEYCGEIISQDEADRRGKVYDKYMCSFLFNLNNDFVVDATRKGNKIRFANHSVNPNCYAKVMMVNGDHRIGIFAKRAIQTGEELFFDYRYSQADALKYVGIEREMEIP
Sequence of EZH2 within the PRC2 complex (O75530 whole entry partner): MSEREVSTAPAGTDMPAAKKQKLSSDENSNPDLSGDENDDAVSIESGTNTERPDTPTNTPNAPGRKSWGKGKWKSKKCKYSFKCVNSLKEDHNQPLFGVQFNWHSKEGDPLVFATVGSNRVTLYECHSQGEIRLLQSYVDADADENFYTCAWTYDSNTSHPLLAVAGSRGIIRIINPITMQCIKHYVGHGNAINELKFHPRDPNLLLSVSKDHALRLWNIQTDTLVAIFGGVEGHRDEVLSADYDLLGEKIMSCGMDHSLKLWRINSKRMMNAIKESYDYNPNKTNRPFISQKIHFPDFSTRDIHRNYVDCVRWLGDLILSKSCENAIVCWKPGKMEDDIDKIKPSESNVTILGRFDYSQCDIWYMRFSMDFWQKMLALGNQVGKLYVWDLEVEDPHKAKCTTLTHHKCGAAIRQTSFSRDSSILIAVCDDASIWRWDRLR
Sequence of EZH2 within the PRC2 complex (Q15022 whole entry partner): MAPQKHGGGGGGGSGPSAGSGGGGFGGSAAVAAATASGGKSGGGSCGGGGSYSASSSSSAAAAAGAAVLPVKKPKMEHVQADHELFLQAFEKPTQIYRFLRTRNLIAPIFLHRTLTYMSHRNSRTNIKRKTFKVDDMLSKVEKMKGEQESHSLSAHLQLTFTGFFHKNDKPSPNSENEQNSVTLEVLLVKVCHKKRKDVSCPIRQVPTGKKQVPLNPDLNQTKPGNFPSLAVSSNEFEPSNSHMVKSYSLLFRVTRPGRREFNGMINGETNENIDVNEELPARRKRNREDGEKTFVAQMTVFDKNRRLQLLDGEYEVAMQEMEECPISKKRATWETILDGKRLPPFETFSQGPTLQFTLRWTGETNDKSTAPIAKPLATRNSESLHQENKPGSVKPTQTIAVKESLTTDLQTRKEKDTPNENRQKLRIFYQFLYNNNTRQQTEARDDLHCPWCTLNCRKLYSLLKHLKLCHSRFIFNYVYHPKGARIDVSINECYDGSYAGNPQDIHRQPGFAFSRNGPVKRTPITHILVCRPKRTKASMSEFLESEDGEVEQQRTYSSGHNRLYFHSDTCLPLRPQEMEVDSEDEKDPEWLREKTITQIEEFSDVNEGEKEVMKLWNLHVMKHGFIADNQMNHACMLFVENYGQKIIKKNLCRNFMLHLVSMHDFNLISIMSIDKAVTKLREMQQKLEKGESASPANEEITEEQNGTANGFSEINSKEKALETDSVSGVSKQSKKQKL
Sequence of EZH2 within the PRC2 complex (Q09028 whole entry partner): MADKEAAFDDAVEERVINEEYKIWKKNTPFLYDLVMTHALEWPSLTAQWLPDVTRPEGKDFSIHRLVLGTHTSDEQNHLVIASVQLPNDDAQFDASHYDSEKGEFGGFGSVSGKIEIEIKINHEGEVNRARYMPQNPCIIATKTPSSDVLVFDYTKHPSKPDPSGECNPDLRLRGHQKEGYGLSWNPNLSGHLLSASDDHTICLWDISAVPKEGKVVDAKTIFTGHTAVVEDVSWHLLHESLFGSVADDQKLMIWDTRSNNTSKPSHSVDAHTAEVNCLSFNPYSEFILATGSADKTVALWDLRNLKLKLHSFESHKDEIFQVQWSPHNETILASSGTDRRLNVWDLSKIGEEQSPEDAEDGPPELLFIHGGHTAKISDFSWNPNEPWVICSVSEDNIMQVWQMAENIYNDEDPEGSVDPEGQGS
Sequence of EZH2 within the PRC2 complex (Q6ZN18 whole entry partner): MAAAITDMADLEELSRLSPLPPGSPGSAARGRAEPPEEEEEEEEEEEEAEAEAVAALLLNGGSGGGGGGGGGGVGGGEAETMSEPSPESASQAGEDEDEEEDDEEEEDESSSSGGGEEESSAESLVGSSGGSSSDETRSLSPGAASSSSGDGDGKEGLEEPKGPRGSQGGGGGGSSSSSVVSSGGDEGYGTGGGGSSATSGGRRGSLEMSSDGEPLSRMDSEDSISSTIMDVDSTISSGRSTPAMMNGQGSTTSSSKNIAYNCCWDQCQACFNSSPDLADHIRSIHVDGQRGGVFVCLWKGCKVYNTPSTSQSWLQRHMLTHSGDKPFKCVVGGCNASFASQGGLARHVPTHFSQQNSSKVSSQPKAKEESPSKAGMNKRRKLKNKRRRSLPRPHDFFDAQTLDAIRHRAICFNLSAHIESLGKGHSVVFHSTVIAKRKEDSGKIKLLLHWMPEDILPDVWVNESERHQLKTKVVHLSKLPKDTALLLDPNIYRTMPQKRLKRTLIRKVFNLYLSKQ

The target in this experiment is EZH2 within the PRC2 complex (Homo sapiens (Human), UniProt Q15910). In words: EZH2 methyltransferase scintillation proximity assay (SPA) with PRC2 complex. The class given is biochemical. The conditions noted are these: 3H-SAM methyl transfer to Histone H3 of HeLa mononucleosomes; 30 min preincubation, 1 hour reaction. Here is the method:
Compounds contained herein were evaluated for their ability to inhibit the methyltransferase activity of EZH2 within the PRC2 complex. Human PRC2 complex was prepared by co-expressing each of the 5 member proteins (FLAG-EZH2, EED, SUZ12, RbAp48, AEBP2) in Sf9 cells followed by co-purification. Enzyme activity was measured in a scintillation proximity assay (SPA) where a tritiated methyl group is transferred from 3H-SAM to a lysine residue on Histone H3 of a mononucleosome, purified from HeLa cells. Mononucleosomes were captured on SPA beads and the resulting signal is read on a ViewLux plate reader.
Part A. Compound Preparation
• 1. Prepare 10 mM stock of compounds from solid in 100% DMSO. • 2. Set up an 11-point serial dilution (1:3 dilution, top concentration 10 mM) in 100% DMSO for each test compound in a 384 well plate leaving columns 6 and 18 for DMSO controls. • 3. Dispense 100 nL of compound from the dilution plate into reaction plates (Grenier Bio-One, 384-well, Cat #784075). Part B. Reagent Preparation Prepare the Following Solutions: • 1. 50 mM Tris-HCl, pH 8: Per 1 L of base buffer, combine 1 M Tris-HCl, pH 8 (50 mL) and distilled water (950 mL). • 2. 1× Assay Buffer: Per 10 mL of 1× Assay Buffer, combine 50 mM Tris-HCl, pH 8 (9958 uL), 1 M MgCl2 (20 uL), 2 M DTT (20 uL), and 10% Tween-20 (2 uL) to provide a final concentration of 50 mM Tris-HCl, pH 8, 2 mM MgCl2, 4 mM DTT, 0.002% Tween-20. • 3. 2× Enzyme Solution: Per 10 mL of 2× Enzyme Solution, combine 1× Assay Buffer and PRC2 complex to provide a final enzyme concentration of 10 nM. • 4. SPA Bead Suspension: Per 1 mL of SPA Bead Suspension, combine PS-PEI coated LEADSeeker beads (40 mg) and ddH2O (1 mL) to provide a final concentration of 40 mg/mL. • 5. 2× Substrate Solution: Per 10 mL of 2× Substrate Solution, combine 1× Assay Buffer (9728.55 uL), 800 ug/mL mononucleosomes (125 uL), 1 mM cold SAM (4 uL), and 7.02 uM 3H-SAM (142.45 uL; 0.55 mCi/mL) to provide a final concentration of 5 ug/mL nucleosomes, 0.2 uM cold SAM, and 0.05 uM 3H-SAM. • 6. 2.67× Quench/Bead Mixture: Per 10 mL of 2.67× Quench/Bead Mixture, combine ddH2O (9358 uL), 10 mM cold SAM (267 uL), 40 mg/mL Bead Suspension (375 uL) to provide a final concentration of 100 uM cold SAM and 0.5 mg/mL SPA beads. Part C. Assay Reaction in 384-Well Grenier Bio-One Plates Compound Addition • 1. Dispense 100 nL/well of 100× Compound to test wells (as noted above). • 2. Dispense 100 nL/well of 100% DMSO to columns 6 & 18 for high and low controls, respectively. Assay • 1. Dispense 5 uL/well of 1× Assay Buffer to column 18 (low control reactions). • 2. Dispense 5 uL/well of 2× Enzyme Solution to columns 1-17, 19-24. • 3. Spin assay plates for ˜1 minute at 500 rpm. • 4. Stack the assay plates, covering the top plate. • 5. Incubate the compound/DMSO with the enzyme for 30 minutes at room temperature. • 6. Dispense 5 uL/well of 2× Substrate Solution to columns 1-24. • 7. Spin assay plates for ˜1 minute at 500 rpm. • 8. Stack the assay plates, covering the top plate. • 9. Incubate the assay plates at room temperature for 1 hour. Quench/Bead Addition • 1. Dispense 5 uL/well of the 3× Quench/Bead Mixture to columns 1-24. • 2. Seal the top of each assay plate with adhesive TopSeal. • 3. Spin assay plates for ˜1 minute at 500 rpm. • 4. Equilibrate the plates for >20 min. Read Plates • 1. Read the assay plates on the Viewlux Plate Reader utilizing the 613 nm emission filter with a 300 s read time. Reagent addition can be done manually or with automated liquid handler. • The final DMSO concentration in this assay is 1%. • The positive control is in column 6; negative control is in column 18. • Final starting concentration of compounds is 100 μM. Results
Percent inhibition was calculated relative to the DMSO control for each compound concentration and the resulting values were fit using standard IC50 fitting parameters within the ABASE data fitting software package.
`CCC(C)Oc1cc(Br)cc(C(=O)NCc2c(C)cc(C)[nH]c2=O)c1C` (centres unmarked) [Example 20, 5-Bromo-3-(sec-butoxy)-N-((4,6-dimethyl-2-oxo-1,2-dihydropyridin-3-yl)methyl)-2-methylbenzamide] displayed an IC50 of 13 nM.

Regarding `CCC(C)Oc1cc(C#N)cc(C(=O)NCc2c(C)cc(C)[nH]c2=O)c1C` (centres unmarked) [Example 44, 3-(sec-Butoxy)-5-cyano-N-((4,6-dimethyl-2-oxo-1,2-dihydropyridin-3-yl)methyl)-2-methylbenzamide], the IC50 was found to be 316 nM.

`COc1cccc(C(=O)NCc2c(C)cc(C)[nH]c2=O)c1C` [Example 36, N-((4,6-dimethyl-2-oxo-1,2-dihydropyridin-3-yl)methyl)-3-methoxy-2-methylbenzamide] gave an IC50 of 2500 nM.

Molecule `Cc1cc(C)c(CNC(=O)c2cc(Cl)cc(NC(C)CO)c2C)c(=O)[nH]1` (centres unmarked) [Example 26, 5—Chloro-N-[(4,6-dimethyl-2-oxo-1,2-dihydro-3-pyridinyl)methyl]-3-[(2-hydroxy-1-methylethyl)amino]-2-methylbenzamide] returned an IC50 of 1000 nM.

On to `CCCc1cc(C)[nH]c(=O)c1CNC(=O)c1cc(-c2ccc(N3CCN(C)CC3)nc2)cc(NC(C)C)c1C` [Example 2, 2-Methyl-3-[(1-methylethyl)amino]-N-[(6-methyl-2-oxo-4-propyl-1,2-dihydro-3-pyridinyl)methyl]-5-[6-(4-methyl-1-piperazinyl)-3-pyridinyl]benzamide], for which the IC50 is 40 nM.

Turning to `Cc1cc(Cc2ccccc2)c(CNC(=O)c2cc(Br)cc(NC(C)C)c2C)c(=O)[nH]1` [Example 4, 5-Bromo-2-methyl-3-[(1-methylethyl)amino]-N-{[6-methyl-2-oxo-4-(phenylmethyl)-1,2-dihydro-3-pyridinyl]methyl}benzamide], 50 nM corresponded to half-maximal inhibition (IC50).

In turn, `Cc1cc(C)c(CNC(=O)c2cc(Cl)cc(OC(C)C)c2Cl)c(=O)[nH]1` [Example 24, 2,5-Dichloro-N-[(4,6-dimethyl-2-oxo-1,2-dihydro-3-pyridinyl)methyl]-3-[(1-methylethyl)oxy]benzamide] had a 50% inhibitory concentration (IC50) of 250 nM.

`CCCc1cc(C)[nH]c(=O)c1CNC(=O)c1cc(Br)cc(NC(C)C)c1C` [Example 1, 5-Bromo-2-methyl-3-[(1-methylethyl)amino]-N-[(6-methyl-2-oxo-4-propyl-1,2-dihydro-3-pyridinyl)methyl]benzamide] came in with an IC50 of 501 nM.
